{"source": "patent US10369163B2", "about": "“Anti-fatigue composition” (AJINOMOTO CO., INC., priority 2013, dated 2019)", "key": {"[1]": {"test_system": "CD2F1 mice", "assay": "Y-maze test, short-working memory (alternation behavior) after 48 hr burden of insufficient sleep", "type": "in vivo, mouse", "conditions": "His:VB6=360:1; His 900, VB6 2.5 mg/kg/day one week plus oral dose; FIG. 7B", "description": "Using CD2F1 mice (9-10-week-old) in the group constitution shown in Table 4, the test was performed as shown in the experiment protocol (FIG. 4A). The His group and His+VB6 group were allowed to drink each solution freely for one week so that the ingestion amount of His would be 900 mg/kg/day, and the ingestion amount of the VB6 group and the His+VB6 group would be […]. As the feed, a feed having the composition of Table 5 was used. After ingestion of His or VB6, or both for one week, insufficient sleep was burdened for 48 hr by filling water in the breeding cage at the depth of 0.5 cm. The burden was released at 6 hr from the start of the light phase, and the mice were placed back in the home cage and allowed to rest for 6 hr. […] A Y-maze test was performed at 3 hr from the start of the dark phase, and short-working memory was measured. […] A Y-maze test was performed at 3 hr from the start of the dark phase, and short-working memory was measured. […] A Y-maze test was performed at 3 hr from the start of the dark phase, and short-working memory was measured. […] A Y-maze test was performed at 3 hr from the start of the dark phase, and short-working memory was measured. […]"}, "[2]": {"test_system": "males feeling decrease in the quality of sleep and fatigue", "assay": "Crossover test of histidine ingestion for 14 days (POMS, VAS questionnaires, CogHealth)", "type": "in vivo, human", "source_text": "Twenty males of 45 years old to less than 65 years old, who received total evaluation of not less than 17 points in the “self-diagnosis fatigue questionnaire” (Fatigue Science Laboratory Inc.), felt decrease in the quality of sleep (generally PSQI≥6), and obtained fatigue factor T scores of not less than 60 points in POMS, performed in advance, were selected, and randomly divided into 2 groups (10 per group). A crossover test, including ingesting histidine and control food (equal volume of cellulose) each for 14 days, was performed in each group. As shown in the experiment protocol of FIG. 9A, the test subjects ingested capsules containing 1.65 g of L-histidine as a daily ingestion amount (5 capsules (hard capsule #2 WHITE OP B/C) containing 0.33 g of L-histidine alone), or control sample capsules (5 capsules containing equal volume of cellulose) for 14 days. After the completion of 14 day ingestion, a 14 day resting period was taken. After the resting period, they ingested the capsules not ingested before the resting period. On the initial day and the day after completion of the capsule ingestion period, the test subjects answered POMS and the VAS questionnaires (fatigue, depression, vague sense, drowsiness, clear thinking, motivation, attentiveness, concentration) relating to fatigue, and cognitive function measurement task CogHealth (under higher difficulty conditions by simultaneously including mental arithmetic task as well) to measure intellectual performance which is one of the fatigue indices. Furthermore, they answered VAS questionnaires after completion of CogHealth."}, "[3]": {"assay": "Safety of His ingestion: general properties, hematology, blood biochemistry", "type": "in vivo, human", "conditions": "ingestion of His (1.65 g, single or 14 days) in test subjects"}, "[4]": {"test_system": "males feeling decrease in the quality of sleep and fatigue", "assay": "Single histidine ingestion (VAS questionnaires, CogHealth)", "type": "in vivo, human", "source_text": "Twenty males of 45 years old to less than 65 years old, who received total evaluation of not less than 17 points in the “self-diagnosis fatigue questionnaire” (Fatigue Science Laboratory Inc.), felt decrease in the quality of sleep (generally PSQI≥6), and obtained fatigue factor T scores of not less than 60 points in POMS performed in advance, were selected, and randomly divided into 2 groups (10 per group). The effect of single ingestion of histidine and control food (equal volume of cellulose) was compared in each group. As shown in the experiment protocol of FIG. 10A, the test subjects took the same meals for 3 days before the experiment, fasted for 10 to for 14 hr, and ingested capsules containing 1.65 g of L-histidine as a single ingestion amount (5 capsules (hard capsule #2 WHITE OP B/C) containing 0.33 g of L-histidine alone), or control sample capsules (5 capsules containing equal volume of cellulose). Before and 1 hr after ingestion of capsules, the test subjects answered the VAS questionnaires (fatigue, depression, vague sense, drowsiness, clear thinking, motivation, attentiveness, concentration) relating to fatigue, and cognitive function measurement task CogHealth (under higher difficulty conditions by simultaneously including mental arithmetic task as well) to measure intellectual performance which is one of the fatigue indices. Furthermore, they answered VAS questionnaires after completion of CogHealth."}, "[5]": {"conditions": "14 days, after completion of CogHealth, p<0.05, FIG. 9E"}, "[6]": {"conditions": "14 days, before CogHealth, vs control food, p<0.05, FIG. 9C"}, "[7]": {"conditions": "single ingestion, after completion of CogHealth"}, "[8]": {"conditions": "single ingestion, before CogHealth, p<0.05, FIG. 10B"}}}
{"compound": "N[C@@H](Cc1c[nH]cn1)C(=O)O", "note": "[His, histidine]", "values": [{"measurement": "alternation behavior as compared to the VB6 group", "setting": "[1]", "value": "significant increase"}, {"measurement": "fatigue factor scores of POMS", "setting": "[2]; 1.65 g L-histidine daily for 14 days vs control food, paired t-test p<0.05, FIG. 9B", "value": "significantly decreased"}, {"measurement": "reaction time of cognitive function measurement task", "setting": "[2]; 14 days, CogHealth, vs control food, FIG. 9D", "value": "shortened"}, {"measurement": "reaction time of delayed recall task", "setting": "[2]; 14 days, CogHealth, vs control food, p<0.05, FIG. 9D", "value": "significantly decreased"}, {"measurement": "VAS sense of attentiveness", "setting": "[2]; [5]", "value": "significantly increased"}, {"measurement": "VAS sense of depression", "setting": "[2]; [5]", "value": "significantly decreased"}, {"measurement": "VAS sense of motivation", "setting": "[2]; [5]", "value": "significantly increased"}, {"measurement": "VAS sense of attentiveness", "setting": "[2]; [6]", "value": "significantly increased"}, {"measurement": "VAS sense of clear thinking", "setting": "[2]; [6]", "value": "significantly increased"}, {"measurement": "VAS sense of motivation", "setting": "[2]; [6]", "value": "significantly increased"}, {"measurement": "variation in general properties, hematology, and blood biochemistry", "setting": "[3]", "value": "did not show problematic variation"}, {"measurement": "work time in 5 kinds of brain function measurement indices", "setting": "[4]; single 1.65 g L-histidine, 1 hr after ingestion, vs control food", "value": "shortened"}, {"measurement": "VAS sense of concentration", "setting": "[4]; [7]", "value": "tended to increase"}, {"measurement": "VAS sense of depression", "setting": "[4]; [7]", "value": "tended to decrease"}, {"measurement": "VAS vague sense", "setting": "[4]; single ingestion, after completion of CogHealth, p<0.05", "value": "significantly decreased"}, {"measurement": "VAS sense of concentration", "setting": "[4]; single ingestion, before CogHealth, FIG. 10B", "value": "tended to increase"}, {"measurement": "VAS sense of attentiveness", "setting": "[4]; [8]", "value": "significantly increased"}, {"measurement": "VAS sense of clear thinking", "setting": "[4]; [8]", "value": "significantly increased"}]}
